# Tested on: HCI-002 (organoid from a triple-negative breast cancer xenograft)
# Assay: CTG-3D luminescence at 96 h relative to day-0 seeding control (ratio to day 0); higher = more growth / less cytotoxicity; PDxO 3D drug screen, 96 h, CTG-3D normalised to day-0 seeding control.
# Details: 0.00025 µM; days in culture: 91
row,SMILES,CTG-3D luminescence at 96 h
1,O=C(c1ccc(F)c(F)c1Nc1ccc(I)cc1F)N1CC(O)([C@@H]2CCCCN2)C1 [cobimetinib],3.46
2,C[C@H](NC(=O)CCC(F)(F)F)C(=O)N[C@@H]1C(=O)N(CCO)c2ncccc2-c2ccccc21 [crenigacestat],3.6
3,Cc1cc(Nc2ncc(Cl)c(Nc3ccccc3S(=O)(=O)C(C)C)n2)c(OC(C)C)cc1C1CCNCC1 [ceritinib],3.86
4,CS(=O)(=O)c1ccc(C(=O)Nc2ccc(Cl)c(-c3ccccn3)c2)c(Cl)c1 [vismodegib],2.4
5,NC(=O)c1cccc2cn(-c3ccc([C@@H]4CCCNC4)cc3)nc12 [niraparib],2.3

# Same assay, conditions: 0.00025 µM; days in culture: 191
row,SMILES,CTG-3D luminescence at 96 h
1,C[C@@H]1COCCN1c1cc(C2([S@](C)(=N)=O)CC2)nc(-c2cc[nH]c3nccc2-3)n1 [ceralasertib],2.89
2,CCN1CCN(Cc2ccc(Nc3ncc(F)c(-c4cc(F)c5nc(C)n(C(C)C)c5c4)n3)nc2)CC1 [abemaciclib],2.89
3,NC1(C(=O)N[C@@H](CCO)c2ccc(Cl)cc2)CCN(c2nc[nH]c3nccc2-3)CC1 [capivasertib],2.72
4,CC(C)n1nc(-c2ccc3oc(N)nc3c2)c2c(N)ncnc21 [sapanisertib],2.71
5,O=C(c1ccc(F)c(F)c1Nc1ccc(I)cc1F)N1CC(O)([C@@H]2CCCCN2)C1 [cobimetinib],2.52
6,C[C@H](NC(=O)CCC(F)(F)F)C(=O)N[C@@H]1C(=O)N(CCO)c2ncccc2-c2ccccc21 [crenigacestat],2.32
7,Cc1cc(Nc2ncc(Cl)c(Nc3ccccc3S(=O)(=O)C(C)C)n2)c(OC(C)C)cc1C1CCNCC1 [ceritinib],2.8
8,CS(=O)(=O)c1ccc(C(=O)Nc2ccc(Cl)c(-c3ccccn3)c2)c(Cl)c1 [vismodegib],3.25
9,NC(=O)c1cccc2cn(-c3ccc([C@@H]4CCCNC4)cc3)nc12 [niraparib],2.98

# Same assay, conditions: 0.00025 µM; days in culture: 209
row,SMILES,CTG-3D luminescence at 96 h
1,C[C@@H]1COCCN1c1cc(C2([S@](C)(=N)=O)CC2)nc(-c2cc[nH]c3nccc2-3)n1 [ceralasertib],2.28
2,CCN1CCN(Cc2ccc(Nc3ncc(F)c(-c4cc(F)c5nc(C)n(C(C)C)c5c4)n3)nc2)CC1 [abemaciclib],2.35
3,NC1(C(=O)N[C@@H](CCO)c2ccc(Cl)cc2)CCN(c2nc[nH]c3nccc2-3)CC1 [capivasertib],2.32
4,CC(C)n1nc(-c2ccc3oc(N)nc3c2)c2c(N)ncnc21 [sapanisertib],2.26
5,O=C(c1ccc(F)c(F)c1Nc1ccc(I)cc1F)N1CC(O)([C@@H]2CCCCN2)C1 [cobimetinib],2.32
6,C[C@H](NC(=O)CCC(F)(F)F)C(=O)N[C@@H]1C(=O)N(CCO)c2ncccc2-c2ccccc21 [crenigacestat],2.47
7,Cc1cc(Nc2ncc(Cl)c(Nc3ccccc3S(=O)(=O)C(C)C)n2)c(OC(C)C)cc1C1CCNCC1 [ceritinib],2.59
8,CS(=O)(=O)c1ccc(C(=O)Nc2ccc(Cl)c(-c3ccccn3)c2)c(Cl)c1 [vismodegib],2.86
9,NC(=O)c1cccc2cn(-c3ccc([C@@H]4CCCNC4)cc3)nc12 [niraparib],2.96

# Same assay, conditions: 0.00025 µM; days in culture: 227
row,SMILES,CTG-3D luminescence at 96 h
1,C[C@@H]1COCCN1c1cc(C2([S@](C)(=N)=O)CC2)nc(-c2cc[nH]c3nccc2-3)n1 [ceralasertib],5.73
2,CCN1CCN(Cc2ccc(Nc3ncc(F)c(-c4cc(F)c5nc(C)n(C(C)C)c5c4)n3)nc2)CC1 [abemaciclib],5.17
3,NC1(C(=O)N[C@@H](CCO)c2ccc(Cl)cc2)CCN(c2nc[nH]c3nccc2-3)CC1 [capivasertib],6.01
4,CC(C)n1nc(-c2ccc3oc(N)nc3c2)c2c(N)ncnc21 [sapanisertib],4.74
5,O=C(c1ccc(F)c(F)c1Nc1ccc(I)cc1F)N1CC(O)([C@@H]2CCCCN2)C1 [cobimetinib],5.25
6,C[C@H](NC(=O)CCC(F)(F)F)C(=O)N[C@@H]1C(=O)N(CCO)c2ncccc2-c2ccccc21 [crenigacestat],5.77
7,Cc1cc(Nc2ncc(Cl)c(Nc3ccccc3S(=O)(=O)C(C)C)n2)c(OC(C)C)cc1C1CCNCC1 [ceritinib],6.52
8,CS(=O)(=O)c1ccc(C(=O)Nc2ccc(Cl)c(-c3ccccn3)c2)c(Cl)c1 [vismodegib],4.4
9,NC(=O)c1cccc2cn(-c3ccc([C@@H]4CCCNC4)cc3)nc12 [niraparib],5.21

# Same assay, conditions: 0.005 µM; days in culture: 62
row,SMILES,CTG-3D luminescence at 96 h
1,C[C@@H]1COCCN1c1cc(C2([S@](C)(=N)=O)CC2)nc(-c2cc[nH]c3nccc2-3)n1 [ceralasertib],2.76
2,CCN1CCN(Cc2ccc(Nc3ncc(F)c(-c4cc(F)c5nc(C)n(C(C)C)c5c4)n3)nc2)CC1 [abemaciclib],3.14
3,NC1(C(=O)N[C@@H](CCO)c2ccc(Cl)cc2)CCN(c2nc[nH]c3nccc2-3)CC1 [capivasertib],2.83
4,CC(C)n1nc(-c2ccc3oc(N)nc3c2)c2c(N)ncnc21 [sapanisertib],2.7
5,O=C(c1ccc(F)c(F)c1Nc1ccc(I)cc1F)N1CC(O)([C@@H]2CCCCN2)C1 [cobimetinib],2.87
6,C[C@H](NC(=O)CCC(F)(F)F)C(=O)N[C@@H]1C(=O)N(CCO)c2ncccc2-c2ccccc21 [crenigacestat],2.56

# Source: the supplement of paper PMC8882468
